The record followed here is patent US9957566B2, “Screening method” (THE UNIVERSITY OF BIRMINGHAM, priority 2009, dated 2018).

Assay [1] deals with peripheral lymphocytes. The assay can be described thus: Lymphocyte culture with or without rapamycin, flow cytometry cell cycle analysis (TG1). Type of assay: cell-based, human. The settings on record: 100 ng/ml rapamycin, 24 hours. Here is the method: (§1) Peripheral lymphocytes (thawed from storage as appropriate) were cultured in a growth medium of RPMI 1640 supplemented with 15% FCS (heat inactivated), plus 2% I-glutamine and 1% penicillin/streptamycin, in the presence of 2.5% phytohaemagglutinin (PHA) for 48 hours at 37° C., 5% CO2, to reach exponential growth. Cultures were prepared in a 96 well plate format, with 6 or 8 wells allocated to each patient (test subject). One single plate could therefore hold eleven sets of patient samples, plus one set of standard samples.
(§2) Once exponential growth of the cells was achieved, the lymphocyte cultures were treated with either growth medium (as above) alone, or the same growth medium plus 100 ng/ml rapamycin, in triplicate/quadruplicate for each patient.
(§3) Cell cultures were harvested after 24 hours. Samples intended for cytotoxicity testing (LDH assay) were frozen at −20° C., whereas samples intended for analysis by flow cytometry were fixed in 85% cold ethanol.
96-well plate lymphocytes cultures (with or without rapamycin) fixed in ethanol (end of step 3) were spun at 400 g for 10 minutes at RT with no breaks. Supernatants were removed and the cell pellets resuspended in 0.300 ml ice-cold PBS/well. The plates were spun again at 400 g for 10 minutes at RT with no breaks. Supernatants were again removed and the cell pellets re-suspended in 0.080 ml of propidium iodide (P1) staining solution/well.
The flow cytometer (FacsCalibur BD) was set up to distinguish well between the G1 and G2 peaks (at least 200 units apart).
Using as a Marker measure the PI reading equivalent to the G1 peak and the G2 peak the parameter X was calculated based on the relation: X=(G2peak−G1peak)/4
(§4) The LDH cytotoxicity assay gave a value for total cell numbers in each lymphocyte culture (with or without rapamycin). […]
[formula] fG1 is the proportion of cells in the G1 phase of the cell cycle as measured by flow cytometry.
Finally, TG1 values calculated for rapamycin treated and untreated lymphocyte cultures from the same test subject were compared.

Assay [2] concerns peripheral lymphocytes. Put plainly: Lymphocyte culture with or without rapamycin, LDH cytotoxicity assay for number of cell divisions. Type of assay: cell-based, human. Conditions: 100 ng/ml rapamycin, 24 hours. Here is the method: as §1, §2, §3
Measurement of cell numbers in the cell cultures prepared in 3) was carried out by LDH cytotoxicity assay using the CytoTox 96® Non-Radioactive Cytotoxicity Assay Kit from Promega, according to the instructions supplied by the manufacturer.
The assays were set up in 96-well plate format, using 30 μl of lymphocyte culture and 50 μl of LDH substrate mix per well (substrate mix is a component of the CytoTox kit, diluted prior to use). Patient samples cultured with or without rapamycin were each tested in triplicate. The assay plates also included diluted standards of LDH positive control (serial dilutions of LDH positive control in lymphocyte culture medium; triplicate samples of 30 μl at each of 1:2500, 1:5000, 1:10,000, 1:20,000, 1:40,000, 1:80,000 and 1:160,000 dilution), to allow construction of a calibration curve.
The reactions were then stopped by adding 50 μl of cold Stop Solution (component of the CytoTox kit) to each well. Optical density was then read at 490 nm.
as §4

[3] abbreviates: subjects with 0 ApoE4 alleles (n=54).
Setting [4] is: subjects with 1 ApoE4 allele (n=38).
Where [5] appears, read: subjects with 2 ApoE4 alleles (n=8).

On to `CO[C@H]1C[C@@H]2CC[C@@H](C)[C@@](O)(O2)C(=O)C(=O)N2CCCC[C@H]2C(=O)O[C@H]([C@H](C)C[C@@H]2CC[C@@H](O)[C@H](OC)C2)CC(=O)[C@H](C)/C=C(\C)[C@@H](O)[C@@H](OC)C(=O)[C@H](C)C[C@H](C)/C=C/C=C/C=C/1C` [Rapamycin, rapamycin], for which the figures for the “TG1 Rapa = length of the G1 time under the effect of Rapamycin (mean)” value with peripheral lymphocytes [1] (setting [3]), in the assay on peripheral lymphocytes [1] (setting [4]) and in the assay with peripheral lymphocytes [1] (setting [5]) were 13.9944, 13.7038 and 13.1059, respectively. Moreover, the “n rapa/n = change in the number of cell divisions under the effect of Rapamycin relative to control cultures from the same individual (mean)” value in the assay with peripheral lymphocytes [2] (setting [3]) turned out to be 1.3044; with peripheral lymphocytes [2] (setting [4]), 1.3775; in the assay with peripheral lymphocytes [2] (setting [5]), 1.4624.
